Measurements from PubChem BioAssay AID1626 (SRMLSC, 2009).

System: M. tuberculosis H37Rv growth inhibition
Assay: M. tuberculosis H37Rv growth inhibitors, H37Rv strain (AID 1626)
Details: for IC90: measured here: IC90 against H37Rv; for CC50: measured here: Vero cell cytotoxicity

| Structure (SMILES) | IC50 | IC90 | CC50 |
| --- | --- | --- | --- |
| Cc1nc2ccc(NC(=O)N(C(C)C)C(C)C)cc2s1 | 20.2 µM | > 100 µM | – |
| Cc1ccc(Nc2nc(CSc3nnc(-c4cccs4)o3)cs2)cc1 | 6.8 µM | 15.9 µM | > 40 µM |
| Cc1ccc(OCCC(=O)Nc2ccc(C)c(F)c2)cc1 | – | > 100 µM | – |
| Cc1cccc(-c2nsc(SCC(=O)NCC3CCCO3)n2)c1 (stereo not drawn) | 1.19 µM | 4.2 µM | – |
| CSc1ccccc1NC(=O)c1cc(C2CC2)on1 | 23.6 µM | 26.7 µM | – |
| CCOC(=O)CSc1nnc(-c2ccccc2NC(=O)c2ccccc2)o1 | 2.75 µM | > 100 µM | – |
| c1coc(CNc2nc(N3CCCCC3)nc3ccccc23)c1 | 1.49 µM | 1.69 µM | > 40 µM |
| N#Cc1ccc(/C=C/C(=O)c2ccc3c(c2)OCO3)cc1 | – | > 100 µM | – |
| Clc1nc(-c2ccccn2)nc2scc(-c3ccccc3)c12 | 9.23 µM | 15.5 µM | 19.9 µM |
| COc1ccc(NC(=O)c2ccc(COCC(F)(F)C(F)F)cc2)cc1 | – | > 100 µM | – |
| CC(C)(C)c1ccc(C(=O)/C=C2\NC(=O)CS2)cc1 | 11.8 µM | > 100 µM | > 40 µM |
| CC1(C)Cc2c(C#N)c(N3CCN(C(=O)c4ccccc4)CC3)nc(Cc3ccccc3)c2CO1 | 10.5 µM | 18.7 µM | > 40 µM |
| CCOC(=O)CNC(=O)CSc1nc(-c2cccc(C)c2)ns1 | 1.5 µM | 8.29 µM | – |
| Cc1cccc(OCCCCc2c(C)n[nH]c2C)c1 | 10.9 µM | 15.5 µM | > 40 µM |
| O=C(COC(=O)c1cccs1)c1ccc2c(c1)OCCO2 | 8.66 µM | 19.2 µM | – |
| COC(=O)c1c(NC(=O)c2ccccc2)sc(C(=O)c2ccccc2)c1C | 9.53 µM | 25.6 µM | 25.3 µM |
| O/C(=C\c1nc2ccccc2nc1/C=C(\O)c1ccccc1)c1ccccc1 | – | > 100 µM | > 40 µM |
| Cc1ccc(Cn2ccc(=O)c(OCc3c(Cl)cccc3Cl)c2C)cc1 | 8.57 µM | 11.8 µM | > 40 µM |
| CC(C)c1ccc(NC(=O)c2snc3ccc(Cl)cc23)cc1 | 3.89 µM | > 100 µM | > 40 µM |
| Cc1cc(C)n(-c2nc(N(c3ccccc3)c3ccccc3)nc(-n3nc(C)cc3C)n2)n1 | 2.76 µM | 10.4 µM | > 40 µM |

| Structure (SMILES) | IC50 | IC90 | CC50 |
| --- | --- | --- | --- |
| CCCn1c(=N)c(C(=O)NCc2ccc3c(c2)OCO3)cc2c(=O)n3cccc(C)c3nc21 | 19.6 µM | 31.7 µM | > 40 µM |
| CCSCc1nnc(SCC(=O)Nc2cccc(SC)c2)n1C | 43.5 µM | > 100 µM | – |
| Cc1sc2cc3c(c(C(=O)c4ccccc4)[n+]2c1C)-c1cccc2cccc-3c12 | 1.52 µM | 2.33 µM | > 40 µM |
| C=C1C(=O)[C@@]23[C@H](O)C[C@@H]4C(C)(C)CC[C@H](O)[C@@]4(C)[C@@H]2CC[C@@H]1[C@H]3O | 8.62 µM | 14.6 µM | 5.78 µM |
| O=C(Nc1ccccc1OC(=O)c1ccc(Cl)cc1)c1ccc(Cl)cc1 | 12 µM | 18.6 µM | – |
| CCOC(=O)CSc1nc(N)c(C#N)c(-c2ccc(OCC)cc2)c1C#N | 0.472 µM | 1.32 µM | – |
| Cc1c(-c2cccc(Cl)c2)nc2ccccc2c1C(=O)OCC(=O)Nc1ccc2c(c1)OCO2 | 10.9 µM | > 100 µM | 38.8 µM |
| CCCCCC(=O)Nc1ccc(-c2csc(C)n2)cc1 | 46 µM | > 100 µM | – |
| Nc1nc(-c2cccc(F)c2)cs1 | 11.2 µM | > 100 µM | – |
| Cc1ccc(NC(=O)CNCc2ccccc2)cc1Br | 32.3 µM | > 100 µM | – |
| Cn1c(O)c(C=Nc2ccccc2-c2ccccc2)c(=O)n(C)c1=O | – | – | > 40 µM |
| COc1ccc(NC(=O)COC(=O)CCCOc2ccc(Cl)cc2Cl)cc1Cl | 80.6 µM | > 100 µM | – |
| O=[N+]([O-])c1cc2cccnc2c2ncccc12 | 1.4 µM | 1.49 µM | 33 µM |
| CC(=O)Nc1ccc(NC(=O)c2ccc(C3SCC(=O)N3CCc3ccccc3)cc2)cc1 (stereo not drawn) | – | > 100 µM | – |
| COc1cccc(C(=O)/C=C/c2ccc(N3CCCCC3)c([N+](=O)[O-])c2)c1 | 29.4 µM | > 100 µM | 27.2 µM |
| CCCCCOc1ccc(C(=O)NCC(=O)NCC(=O)OCC)cc1 | 5.74 µM | 6.53 µM | > 40 µM |
| Cc1cccc(Oc2ccc(N)cc2)c1 | – | > 100 µM | – |
| c1ccc2c(NC3C4CC5CC(C4)CC3C5)nc(N3CCOCC3)nc2c1 (stereo not drawn) | 1.89 µM | 3.08 µM | 27.9 µM |
| Cc1oc2c(c1C(=O)Nc1cccc3ccccc13)CCCC2 | 3.58 µM | 7.71 µM | – |
| CCOC(=O)C(Cc1ccccc1)C(=O)Nc1cccc2ccccc12 (stereo not drawn) | 4 µM | 12.7 µM | – |

| Structure (SMILES) | IC50 | IC90 | CC50 |
| --- | --- | --- | --- |
| c1ccc(-c2nc(NCCCn3ccnc3)c3ccccc3n2)cc1 | 5.87 µM | 8.05 µM | > 40 µM |
| Cc1nc(N2CCN(Cc3ccc(Cl)cc3)CC2)c2oc3ccccc3c2n1 | 15.7 µM | 19.8 µM | > 40 µM |
| Brc1c(-c2ccc3c(c2)OCO3)nc2ncccn12 | 2.23 µM | 7.15 µM | > 40 µM |
| Cc1ccc(SC/C(O)=C(\C#N)c2nc3ccccc3n2C)cc1 | – | – | > 40 µM |
| C=CCOC(=O)C(C#N)c1nc2ccccc2nc1N1CCN(Cc2ccc3c(c2)OCO3)CC1 (stereo not drawn) | 5.44 µM | 6.17 µM | > 40 µM |
| O=C(Nc1nnc(C2=COCCO2)o1)c1ccc(Cc2ccccc2)cc1 | 4.49 µM | 10.6 µM | > 40 µM |
| CCCCOC(=O)c1ccc(N=Nc2c(C)c(C#N)c(O)[nH]c2=O)cc1 | < 0.195 µM | > 100 µM | – |
| O=C(CCNc1ccc(Cl)c(C(F)(F)F)c1)c1ccco1 | 49.3 µM | > 100 µM | – |
| CCOC(=O)COc1cc(OCC(=O)OCC)c2c(=O)cc(-c3ccccc3)oc2c1 | 1.37 µM | 3.74 µM | – |
| Cc1nn(-c2ccccc2)c(C)c1C(=O)Nc1nnc(-c2ccco2)o1 | 13.5 µM | > 100 µM | 38.5 µM |
| CC(=O)c1ccc(NC(=O)c2ccc(CNc3c(N4CCOCC4)c(=O)c3=O)cc2)cc1 | 5.81 µM | 6.61 µM | – |
| CC(=O)NC(=O)c1ccc(-c2ccc(Cl)cc2)o1 | 11.3 µM | > 100 µM | – |
| CCCC(=O)N1CCN(c2ccc(NC(=O)c3ccc([N+](=O)[O-])o3)cc2)CC1 | 1 µM | 2.22 µM | 3.1 µM |
| Cc1ccc(OC(=O)c2ccc(Br)o2)cc1 | 65.4 µM | > 100 µM | – |
| CNc1nc(-c2ccccn2)nnc1-c1ccccc1 | 8.5 µM | 11.1 µM | 11.3 µM |
| OC(CNCC(c1ccc(Cl)cc1Cl)c1c[nH]c2ccccc12)c1ccccc1 (stereo not drawn) | 6.68 µM | 10.3 µM | 11.2 µM |
| C/C(=C\C(=S)Nc1ccccc1)Nc1ccc2ccccc2c1 | 4.39 µM | 48.9 µM | > 40 µM |
| Cc1ccc(-c2noc(-c3cc4ccccc4oc3=O)n2)cc1 | 1.5 µM | > 100 µM | – |
| O=C(/C=C/c1ccc(Cl)cc1)c1cccnc1 | 2.01 µM | 4.7 µM | 28.5 µM |
| CCOC(=O)c1cnc(-n2nc(C)cc2C)nc1NC1CCCC1 | 0.755 µM | 0.859 µM | 15.2 µM |
